Literature values, collected in patent publication US20200246404A1, “FORMULATIONS” (Molecular Infusions, LLC, priority 2017, published 2020).

Legend:
[1] = test system: human PBMCs; settings: human PBMCs in vitro
[2] = test system: encephalitogenic T cells; settings: encephalitogenic T cells after in vivo application to rats

Compound	duration of action for psychoactive effects (in vivo)	administered dose that reaches the systemic circulation (oral)	release of IFN-γ and IL-17 [1]	release of IFN-γ and IL-17 [2]
CCCCCc1cc(O)c2c(c1)OC(C)(C)[C@@H]1CCC(C)=C[C@@H]21 [dronabinol, Synthetic Δ9-tetrahydrocannabinol]	4 to 6 h	10 to 20%	–	–
CCOC(=O)C(C)=O [Ethyl pyruvate]	–	–	efficiently suppressed	efficiently suppressed
